The source made the active and inactive calls. The calls are words filed in the database; no cut-off is given here.
What was measured:
[1] = biological target: Cholinesterase (Mus musculus) (UniProt Q03311); assay: Inhibition of cholinesterase in mouse skeletal muscle at 2 uM/ml; assay type: tissue-based; details: Muscle tissue
[2] = biological target: Cholinesterase (Mus musculus) (UniProt Q03311); assay: Inhibition of cholinesterase in mouse skeletal muscle at 10 uM/ml; details: Muscle tissue

Sequence of Cholinesterase (Mus musculus) (Q03311 whole entry): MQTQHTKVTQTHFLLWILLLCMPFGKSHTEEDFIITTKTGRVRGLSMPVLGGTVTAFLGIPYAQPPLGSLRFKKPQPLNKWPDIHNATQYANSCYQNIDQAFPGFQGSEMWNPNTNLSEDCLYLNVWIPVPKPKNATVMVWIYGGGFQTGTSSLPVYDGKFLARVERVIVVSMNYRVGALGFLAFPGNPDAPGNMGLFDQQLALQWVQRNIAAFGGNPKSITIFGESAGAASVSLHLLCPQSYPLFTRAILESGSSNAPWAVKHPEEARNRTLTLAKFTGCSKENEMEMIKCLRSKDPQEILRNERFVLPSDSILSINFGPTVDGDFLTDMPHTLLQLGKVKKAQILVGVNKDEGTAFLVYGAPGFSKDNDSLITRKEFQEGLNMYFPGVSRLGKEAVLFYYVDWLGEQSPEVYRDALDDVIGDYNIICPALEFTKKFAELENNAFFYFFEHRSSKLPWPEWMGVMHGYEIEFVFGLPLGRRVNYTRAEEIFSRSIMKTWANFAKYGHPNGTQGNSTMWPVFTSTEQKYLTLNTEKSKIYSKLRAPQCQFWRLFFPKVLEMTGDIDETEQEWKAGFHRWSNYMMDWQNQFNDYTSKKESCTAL

Structure (SMILES) | Activity [1] | Activity [2]
C=C[C@@H]1[C@H]2C=C(C)C[C@]1(NC)c1ccc(=O)[nH]c1C2 | Active | 
C=C[C@@H]1[C@H]2C=C(C)C[C@]1(N(C)C)c1ccc(=O)[nH]c1C2 |  | inactive
